Measurements from article PMC7465040, “Cytotoxic and Anti-Plasmodial Activities of Stephania dielsiana Y.C. Wu Extracts and the Isolated Compounds” (Molecules, 2020).
Read-outs that look alike come from different tables or passages of the source.

Experiments:
184B5 = assay: SRB cell proliferation assay, 184B5 non-cancer cells; format: cell-based, human; conditions: Homo sapiens, 184B5, read-out: IC50 (μM ± SD) 184B5
Description: (§1) In vitro anticancer study: The in vitro anti-proliferative tests were carried out as described previously, using aliquots of the cell lines used therein. Briefly, HeLa, MDA-MB-231 and MDA-MB-468, MCF7, and 184B5 and MCF 10A cell lines were purchased from ATCC. The identity of the cell lines presented in this study were verified by short tandem repeat profiling by Genetica DNA Laboratories (www.celllineauthentication.com) (April 8, 2015). MCF10A was grown in DMEM F12 medium supplemented with 0.02 μg/mL epidermal growth factor, 10% FBS, 10 μg/mL insulin and […] hydrocortisone. MDA-MB-468 were grown in DMEM supplemented with 10% FBS and antibiotics cocktail (100 μg/mL streptomycin, 100 units/mL penicillin and 250 ng/mL amphotericin B). SRB cell proliferation assays were carried out as previously described, with some minor modifications. The concentration range for all tested cell lines were from 100–0.39 μg/mL for extracts and 100–0.39 μM for pure compounds. […] All experiments were carried out at least twice.

MCF7 = assay: SRB cell proliferation assay, MCF7; format: cell-based, human; conditions: for IC50: Homo sapiens, MCF7, Table 2A, SRB, 72 h, read-out: IC50 (μM ± SD) MCF7
Description: as §1

MDA-MB-468 = assay: SRB cell proliferation assay, MDA-MB-468; format: cell-based, human; conditions: for IC50: Homo sapiens, MDA-MB-468, Table 2A, SRB, 72 h, read-out: IC50 (μM ± SD) MDA-MB-468
Description: as §1

HeLa = assay: SRB cell proliferation assay, HeLa; format: cell-based, human; conditions: for IC50: Homo sapiens, HeLa, 72 h, Table 2A, SRB, read-out: IC50 (μM ± SD) HeLa
Description: as §1

[1] = tested on: Plasmodium falciparum 3D7 and W2 strains; assay: In vitro anti-plasmodial assay, both strains; format: cell-based
Description: (§2) Parasites were grown in A-positive human blood (Etablissement Français du Sang, Marseille, France) under controlled atmospheric conditions that consisted of 10% O2, 5% CO2, and 85% N2 at 37 °C with a humidity of 95%.
(§3) In vitro anti-plasmodial assay: The two P. falciparum strains 3D7 and W2 were synchronized twice with sorbitol before use. The clonality of these strains was verified both in our laboratory and in an independent laboratory from the Worldwide Anti-malarial Resistance Network (WWARN) by PCR genotyping of the polymorphic genetic markers msp1 and msp2 and microsatellite loci. The compounds were re-suspended in methanol or DMSO 5% (v/v) and then diluted in methanol to obtain final concentrations ranging from 0.008 to 500 μg/mL (final concentration of 0.5% of methanol or DMSO). […] The plates were incubated for 72 h at 37 °C in controlled atmospheric conditions 5% CO2, 10% O2, and […]. After thawing the plates, haemolysed cultures were homogenized by vortexing the plates. Both the success of the drug susceptibility assay and the appropriate volume of haemolysed culture to use for each assay were determined for each clinical isolate during a preliminary HRP2 ELISA. Both the pre-test and subsequent ELISA assays were performed using a commercial kit (Malaria Ag Celisa, ref KM2159, Cellabs PTY LTD, Brookvale, Australia) according to the manufacturer’s recommendation. The optical density (OD) of each sample was measured with a spectrophotometer (Safire 2, Tecan, Lyon, France). […] The anti-plasmodial in vitro assay was performed five times for each product. The IC50 values represented the mean value calculated from five experiments. According to Hout, a selectivity index (SI) was based on the ratio between anti-parasitic and cytotoxic activities. In the case of our study, a SI was calculated between non-tumorigenic cell line 184B5 and parasites 3D7 or W2 and/or MCF10A and these two parasites.

[2] = tested on: chloroquine-resistant W2 P. falciparum strain; assay: In vitro anti-plasmodial assay (HRP2 ELISA), W2; format: cell-based, Plasmodium falciparum; conditions: for IC50: 72 h, HRP2 ELISA, mean of five experiments, read-out: IC50 (μM ± SD) W2; for SI W2 184B5 / SI W2 MCF10A: Table 3; for SI W2 184B5: selectivity index between 184B5 and parasites W2; for SI W2 MCF10A: selectivity index between MCF10A and parasites W2
Description: as §2, §3

MCF 10A = assay: SRB cell proliferation assay, MCF10A non-cancer cells; format: cell-based; conditions: Homo sapiens, read-out: IC50 (μM ± SD) MCF 10A
Description: as §1

MDA-MB-231 = assay: SRB cell proliferation assay, MDA-MB-231; format: cell-based, human; conditions: for IC50: Homo sapiens, MDA-MB-231, Table 2A, SRB, 72 h, read-out: IC50 (μM ± SD) MDA-MB-231
Description: as §1

[3] = tested on: chloroquine-susceptible 3D7 P. falciparum strain; assay: In vitro anti-plasmodial assay (HRP2 ELISA), 3D7; format: cell-based, Plasmodium falciparum; conditions: for IC50: 72 h, HRP2 ELISA, mean of five experiments, read-out: IC50 (μM ± SD) 3D7; for SI 3D7 184B5 / SI 3D7 MCF10A: Table 3; for SI 3D7 184B5: selectivity index between 184B5 and parasites 3D7; for SI 3D7 MCF10A: selectivity index between MCF10A and parasites 3D7
Description: as §2, §3

[4] = tested on: HeLa, MDA-MB231, MDA-MB-468, MCF7, 184B5 and MCF10A cell lines; assay: SRB cell proliferation assay, whole panel of cell lines; format: cell-based, human
Description: as §1

[5] = Plasmodium falciparum, W2, 72 h

Compound	IC50 (184B5; Table 2A, SRB, 72 h) [µM]	IC50 (184B5; Table 3, non-cancer cell line) [µM]	IC50 (MCF7) [µM]	IC50 (MDA-MB-468) [µM]	IC50 (HeLa) [µM]	Anti-plasmodial activity against both 3D7 and W2 (in words) [1]	IC50 [2] [µM]	IC50 [2, 5] [µM]	SI W2 184B5 [2]	SI W2 MCF10A [2]	IC50 (MCF 10A; Table 2A, SRB, 72 h) [µM]	IC50 (MCF 10A; Table 3, non-cancer cell line) [µM]	IC50 (MDA-MB-231) [µM]	IC50 [3] [µM]	SI 3D7 184B5 [3]	SI 3D7 MCF10A [3]	other results
COc1cc2c(cc1OC)[C@@H]1Cc3ccc(OC)c(OC)c3CN1CC2 [Tetrahydropalmatine 7, tetrahydropalmatine]	> 50	> 50	> 50	> 50	> 50	not active	226 ± 19.8	216 to 226	>0.22	>0.22	> 50	> 50	> 50	276 ± 14.4	>0.18	>0.18	Anti-proliferative activity (in words) [4]: did not show any effect
COc1cccc2c1C(=O)c1c3c-2c2c(cc3cc[n+]1C)OCO2 [Thailandine 2, thailandine]	3.02 ± 0.1	3.02 ± 0.1	1.99 ± 1.36	0.78 ± 0.12	4.1 ± 0.4	strong activity	0.22 ± 0.02	0.24	13.73	22.77	5.01 ± 0.15	5.01 ± 0.15	7.11 ± 0.07	0.24 ± 0.04	12.58	20.86	Selectivity index (SI) 184B5 versus MCF7 (MCF7; Table 2B, non-cancer 184B5 vs cancer MCF7): 1.50; Selectivity index (SI) MCF10A versus MCF7 (MCF7; Table 2B, non-cancer MCF10A vs cancer MCF7): 2.50; Selectivity index (SI) 184B5 versus MDA-MB-468 (MDA-MB-468; Table 2B, non-cancer 184B5 vs cancer MDA-MB-468): 3.90; Selectivity index (SI) MCF10A versus MDA-MB-468 (MDA-MB-468; Table 2B, non-cancer MCF10A vs cancer MDA-MB-468): 6.40; Selectivity index (SI) 184B5 versus HeLa (HeLa; Table 2B, non-cancer 184B5 vs cancer HeLa): 0.73; Selectivity index (SI) MCF10A versus HeLa (HeLa; Table 2B, non-cancer MCF10A vs cancer HeLa): 1.20; Selectivity index (SI) between cells and parasites ([1]; 184B5, MCF10A vs 3D7, W2): > 12; SI against P. falciparum (W2 vs. MCF10A) [2]: 22.8 fold; Selectivity index (SI) 184B5 versus MDA-MB-231 (MDA-MB-231; Table 2B, non-cancer 184B5 vs cancer MDA-MB-231): 0.42; Selectivity index (SI) MCF10A versus MDA-MB-231 (MDA-MB-231; Table 2B, non-cancer MCF10A vs cancer MDA-MB-231): 0.70; SI against P. falciparum (3D7 vs. 184B5) [3]: 12.6 fold; IC50 ([3]; Plasmodium falciparum, 3D7, 72 h): 0.22 µM; IC50 ([4]; Homo sapiens, cancer and non-cancer cell lines, read-out: IC50 values, range over the cell lines examined): 0.78 to 7.11 µM
